From patent US7994209B2, “3-phenoxymethylpyrrolidine compounds” (Theravance, Inc., priority 2009, dated 2011)
Marks after values point to notes of the source that are not given here.

Legend:
hSERT = hSERT (Homo sapiens, UniProt P31645); test: fluorescence-based serotonin reuptake inhibition assay (Tsuruda et al. 2010; data indicated by an asterisk); type: cell-based; design: expressed in transfected cells; host or cells: HEK-293; settings: fluorescence-based assay (values with asterisk); for IC50: read-out: SERT pIC50 (converted)
hSERT, sequence (P31645 whole entry): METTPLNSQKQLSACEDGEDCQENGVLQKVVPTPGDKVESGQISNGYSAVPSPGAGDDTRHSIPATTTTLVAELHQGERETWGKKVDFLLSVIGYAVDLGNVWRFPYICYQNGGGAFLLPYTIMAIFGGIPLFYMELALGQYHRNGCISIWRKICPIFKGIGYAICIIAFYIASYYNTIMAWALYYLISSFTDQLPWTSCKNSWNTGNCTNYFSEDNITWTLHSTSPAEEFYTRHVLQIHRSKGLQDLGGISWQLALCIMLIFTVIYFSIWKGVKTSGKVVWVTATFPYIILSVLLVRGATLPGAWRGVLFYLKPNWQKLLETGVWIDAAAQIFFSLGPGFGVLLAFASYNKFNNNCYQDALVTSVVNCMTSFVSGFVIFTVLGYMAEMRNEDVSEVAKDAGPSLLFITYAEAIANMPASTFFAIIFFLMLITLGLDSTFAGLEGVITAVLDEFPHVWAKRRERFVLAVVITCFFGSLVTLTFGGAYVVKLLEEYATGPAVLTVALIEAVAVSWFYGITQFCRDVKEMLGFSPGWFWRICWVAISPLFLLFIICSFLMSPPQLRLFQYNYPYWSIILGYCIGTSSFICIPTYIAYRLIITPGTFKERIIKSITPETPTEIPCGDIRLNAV

hNET = hNET (Homo sapiens, UniProt P23975); test: fluorescence-based norepinephrine reuptake inhibition assay (Tsuruda et al. 2010; data indicated by an asterisk); type: cell-based; design: expressed in transfected cells; host or cells: HEK-293; settings: norepinephrine reuptake inhibition, fluorescence-based assay (values with asterisk); read-out: NET pIC50 (converted)
hNET, sequence (P23975 whole entry): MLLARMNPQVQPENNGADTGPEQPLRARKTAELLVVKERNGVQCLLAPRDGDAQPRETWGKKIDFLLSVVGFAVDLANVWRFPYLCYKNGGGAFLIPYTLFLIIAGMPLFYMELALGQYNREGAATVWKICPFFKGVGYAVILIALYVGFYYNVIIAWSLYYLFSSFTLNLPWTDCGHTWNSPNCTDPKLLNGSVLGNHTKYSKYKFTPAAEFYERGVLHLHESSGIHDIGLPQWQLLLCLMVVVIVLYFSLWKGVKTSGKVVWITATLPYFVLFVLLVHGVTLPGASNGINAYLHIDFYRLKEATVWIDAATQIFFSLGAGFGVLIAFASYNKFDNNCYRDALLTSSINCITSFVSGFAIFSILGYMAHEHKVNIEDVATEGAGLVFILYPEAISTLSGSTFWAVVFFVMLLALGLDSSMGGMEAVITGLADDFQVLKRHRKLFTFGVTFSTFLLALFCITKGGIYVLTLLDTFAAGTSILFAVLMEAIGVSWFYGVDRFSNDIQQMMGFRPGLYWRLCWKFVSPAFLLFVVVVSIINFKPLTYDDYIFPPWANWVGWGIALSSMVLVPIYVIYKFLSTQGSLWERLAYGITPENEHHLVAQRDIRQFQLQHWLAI

Row | SMILES | IC50 (hSERT) | IC50 (hNET) | SERT pIC50 (hSERT)
1 | COc1cc(Cl)ccc1O[C@H](C(C)C)[C@@H]1CCNC1 [Example 6-48, (R)-3-[(R)-1-(4-Chloro-2-methoxyphenoxy)-2-methylpropyl]pyrrolidine] | ≤ 10 nM | ≤ 100 nM | 
2 | CC(C)[C@@H](Oc1ccc(Cl)c(F)c1)[C@H]1CCNC1 [Example 6-57, (S)-3-[(R)-1-(4-Chloro-3-fluorophenoxy)-2-methylpropyl]pyrrolidine] | ≤ 10 nM | ≤ 100 nM | 
3 | CC(C)[C@@H](Oc1ccc(Cl)c(F)c1)[C@@H]1CCNC1 [Example 6-58, (R)-3-[(R)-1-(4-Chloro-3-fluorophenoxy)-2-methylpropyl]pyrrolidine] | ≤ 10 nM | ≤ 100 nM | 
4 | CC(C)[C@H](Oc1cc(F)cc(Cl)c1)[C@H]1CCNC1 [Example 6-59, (S)-3-[(S)-1-(3-Chloro-5-fluorophenoxy)-2-methylpropyl]pyrrolidine] | ≤ 100 nM | ≤ 10 nM | 
5 | CC(C)[C@@H](Oc1cc(F)cc(Cl)c1)[C@H]1CCNC1 [Example 6-60, (S)-3-[(R)-1-(3-Chloro-5-fluorophenoxy)-2-methylpropyl]pyrrolidine] | ≤ 10 nM | ≤ 10 nM | 
6 | CC(C)[C@@H](Oc1cc(F)cc(Cl)c1)[C@@H]1CCNC1 [Example 6-61, (R)-3-[(R)-1-(3-Chloro-5-fluorophenoxy)-2-methylpropyl]pyrrolidine] | ≤ 100 nM | ≤ 100 nM | 
7 | CC(C)[C@@H](Oc1ccc(Cl)c(Cl)c1)[C@H]1CCNC1 [Example 6-63, (S)-3-[(R)-1-(3,4-Dichlorophenoxy)-2-methylpropyl]pyrrolidine] | ≤ 10 nM | ≤ 100 nM | 
8 | CC(C)[C@@H](Oc1ccc(Cl)c(Cl)c1)[C@@H]1CCNC1 [Example 6-64, (R)-3-[(R)-1-(3,4-Dichlorophenoxy)-2-methylpropyl]pyrrolidine] | ≤ 10 nM | ≤ 100 nM | 
9 | CC(C)[C@H](Oc1ccc(Cl)c(Cl)c1)[C@@H]1CCNC1 [Example 6-65, (R)-3-[(S)-1-(3,4-Dichlorophenoxy)-2-methylpropyl]pyrrolidine] | ≤ 10 nM | ≤ 100 nM | 
10 | CC(C)[C@H](Oc1cc(Cl)cc(Cl)c1)[C@@H]1CCNC1 [Example 6-69, (R)-3-[(S)-1-(3,5-Dichlorophenoxy)-2-methylpropyl]pyrrolidine] | ≤ 100 nM | ≤ 100 nM | 
11 | Cc1cc(O[C@H](C(C)C)[C@H]2CCNC2)ccc1Cl [Example 6-71, (S)-3-[(R)-1-(4-Chloro-3-methylphenoxy)-2-methylpropyl]pyrrolidine] | ≤ 10 nM | ≤ 100 nM | 
12 | CC(C)C[C@H](Oc1cccc(C(F)(F)F)c1F)[C@H]1CCNC1 [Example 10-21, (S)-3-[(S)-1-(2-Fluoro-3-trifluoromethylphenoxy)-3-methylbutyl]pyrrolidine] | ≤ 10 nM | ≤ 10 nM | 
13 | CC(C)C[C@@H](Oc1cccc(Cl)c1C(F)(F)F)[C@H]1CCNC1 [Example 10-34, (S)-3-[(R)-1-(3-Chloro-2-trifluoromethylphenoxy)-3-methylbutyl]pyrrolidine] | ≤ 10 nM | ≤ 100 nM | 
14 | CC(C)C[C@@H](Oc1ccc(Cl)cc1F)[C@H]1CCNC1 [Example 10-40, (S)-3-[(R)-1-(4-Chloro-2-fluorophenoxy)-3-methylbutyl]pyrrolidine] | ≤ 100 nM | ≤ 10 nM | 
15 | CC(C)C[C@H](Oc1cc(Cl)ccc1Cl)[C@H]1CCNC1 [Example 10-51, (S)-3-[(S)-1-(2,5-Dichlorophenoxy)-3-methylbutyl]pyrrolidine] | ≤ 10 nM | ≤ 10 nM | 
16 | CC(C)C[C@H](Oc1c(F)ccc(Cl)c1F)[C@H]1CCNC1 [Example 10-60, (S)-3-[(S)-1-(3-Chloro-2,6-difluorophenoxy)-3-methylbutyl]pyrrolidine] | ≤ 10 nM | ≤ 10 nM | 
17 | CC(C)C[C@H](Oc1c(F)ccc(F)c1Cl)[C@H]1CCNC1 [Example 10-63, (S)-3-[(S)-1-(2-Chloro-3,6-difluorophenoxy)-3-methylbutyl]pyrrolidine] | ≤ 10 nM | ≤ 10 nM | 
18 | CC(C)C[C@H](Oc1c(F)ccc(Cl)c1Cl)[C@H]1CCNC1 [Example 10-65, (S)-3-[(S)-1-(2,3-Dichloro-6-fluorophenoxy)-3-methylbutyl]pyrrolidine] | ≤ 10 nM | ≤ 10 nM | 
19 | CC(C)C[C@H](Oc1c(F)cc(Cl)cc1F)[C@H]1CCNC1 [Example 10-67, (S)-3-[(S)-1-(4-Chloro-2,6-difluorophenoxy)-3-methylbutyl]pyrrolidine] | ≤ 10 nM | ≤ 10 nM | 
20 | CC(C)C[C@@H](Oc1ccc(Cl)c(F)c1)[C@H]1CCNC1 [Example 10-71, (S)-3-[(R)-1-(4-Chloro-3-fluorophenoxy)-3-methylbutyl]pyrrolidine] | ≤ 10 nM | ≤ 10 nM | 
21 | CC(C)C[C@H](Oc1ccc(Cl)c(F)c1)[C@H]1CCNC1 [Example 10-72, (S)-3-[(S)-1-(4-Chloro-3-fluorophenoxy)-3-methylbutyl]pyrrolidine] | ≤ 10 nM | ≤ 10 nM | 

Row | SMILES | IC50 (hSERT) | IC50 (hNET) | SERT pIC50 (hSERT)
22 | CC(C)C[C@H](Oc1ccc(Cl)c(Cl)c1)[C@H]1CCNC1 [Example 10-74, (S)-3-[(S)-1-(3,4-Dichlorophenoxy)-3-methylbutyl]pyrrolidine] | ≤ 10 nM | ≤ 10 nM | 
23 | Cc1cc(O[C@@H](CC(C)C)[C@H]2CCNC2)ccc1Cl [Example 10-75, (S)-3-[(S)-1-(4-Chloro-3-methylphenoxy)-3-methylbutyl]pyrrolidine] | ≤ 10 nM | ≤ 10 nM | 
24 | Cc1cc(O[C@H](CC(C)C)[C@H]2CCNC2)ccc1Cl [Example 10-76, (S)-3-[(R)-1-(4-Chloro-3-methylphenoxy)-3-methylbutyl]pyrrolidine] | ≤ 10 nM | ≤ 100 nM | 
25 | CC(C)C[C@@H](Oc1cc(F)cc(Cl)c1)[C@H]1CCNC1 [Example 10-83, (S)-3-[(R)-1-(3-Chloro-5-fluorophenoxy)-3-methylbutyl]pyrrolidine] | ≤ 100 nM | ≤ 10 nM | 
26 | CC(C)C[C@H](Oc1c(Cl)c(F)cc(F)c1Cl)[C@H]1CCNC1 [Example 10-85, (S)-3-[(S)-1-(2,6-Dichloro-3,5-difluorophenoxy)-3-methylbutyl]pyrrolidine] | ≤ 10 nM | ≤ 10 nM | 
27 | CCC(CC)[C@@H](Oc1cccc(Cl)c1Cl)[C@H]1CCNC1 [Example 11, (S)-3-[(R)-1-(2,3-Dichlorophenoxy)-2-ethylbutyl]pyrrolidine] | ≤ 10 nM | ≤ 10 nM | 
28 | CCC(CC)[C@H](Oc1cccc(Cl)c1Cl)[C@H]1CCNC1 [Example 12-1, (S)-3-[(S)-1-(2,3-Dichlorophenoxy)-2-ethylbutyl]pyrrolidine] | ≤ 10 nM | ≤ 10 nM | 
29 | CC(C)[C@H](Oc1cccc2ccccc12)[C@@H]1CCNC1 [Example 14-4, (R)-3-[(S)-2-Methyl-1-(naphthalen-1-yloxy)propyl]pyrrolidine] | ≤ 10 nM | ≤ 100 nM | 
30 | CC(C)[C@@H](Oc1cccc2ccccc12)[C@H]1CCNC1 [Example 14-6, (S)-3-[(R)-2-Methyl-1-(naphthalen-1-yloxy)propyl]pyrrolidine] | ≤ 10 nM | ≤ 10 nM | 
31 | CC(C)[C@@H](Oc1cccc2ccccc12)[C@@H]1CCNC1 [Example 14-7, (R)-3-[(R)-2-Methyl-1-(naphthalen-1-yloxy)propyl]pyrrolidine] | ≤ 10 nM | ≤ 100 nM | 
32 | CC(C)C[C@H](Oc1cccc2ccccc12)[C@H]1CCNC1 [Example 14-8, (S)-3-[(S)-3-Methyl-1-(naphthalen-1-yloxy)butyl]pyrrolidine] | ≤ 10 nM | ≤ 10 nM | 
33 | CC(C)C[C@@H](Oc1cccc2ccccc12)[C@H]1CCNC1 [Example 14-9, (S)-3-[(R)-3-Methyl-1-(naphthalen-1-yloxy)butyl]pyrrolidine] | ≤ 10 nM | ≤ 10 nM | 
34 | Fc1c(Cl)ccc(O[C@@H](C2CC2)[C@H]2CCNC2)c1F [Example 16-48, (S)-3-[(S)-(4-Chloro-2,3-difluorophenoxy)cyclopropylmethyl]pyrrolidine] | ≤ 10 nM | ≤ 10 nM | 
35 | Fc1c(Cl)ccc(O[C@H](C2CC2)[C@H]2CCNC2)c1F [Example 16-49, (S)-3-[(R)-(4-Chloro-2,3-difluorophenoxy)cyclopropylmethyl]pyrrolidine] | ≤ 10 nM | ≤ 10 nM | 
36 | Fc1cc(Cl)cc(O[C@@H](C2CC2)[C@H]2CCNC2)c1Cl [Example 16-57, (S)-3-[(S)cyclopropyl-(2,5-dichloro-3-fluorophenoxy)methyl]pyrrolidine] | ≤ 100 nM | ≤ 100 nM | 
37 | Cc1cc(Cl)cc(Cl)c1O[C@H](C1CC1)[C@H]1CCNC1 [Example 16-78, (S)-3-[(R)cyclopropyl-(2,4-dichloro-6-methylphenoxy)methyl]pyrrolidine] | ≤ 100 nM | ≤ 100 nM | 
38 | COc1cc(Cl)cc(O[C@@H](C2CC2)[C@H]2CCNC2)c1 [Example 16-100, (S)-3-[(S)-(3-Chloro-5-methoxyphenoxy)cyclopropylmethyl]pyrrolidine] | ≤ 100 nM | ≤ 10 nM | 
39 | Cc1cc(O[C@@H](C2CC2)[C@H]2CCNC2)cc(C)c1Cl [Example 16-101, (S)-3-[(S)-(4-Chloro-3,5-dimethylphenoxy)cyclopropylmethyl]pyrrolidine] | ≤ 10 nM | ≤ 100 nM | 
40 | Clc1cccc(OC(C2CCCC2)C2CCNC2)c1Cl (stereo not drawn) [Example 18-1, 3-[Cyclopentyl-(2,3-dichlorophenoxy)methyl]pyrrolidine] | ≤ 10 nM | ≤ 10 nM | 
41 | Cc1ccc(OC(C2CCCC2)C2CCNC2)c(Cl)c1 (stereo not drawn) [Example 18-6, 3-[(2-Chloro-4-methylphenoxy)cyclopentylmethyl]pyrrolidine] |  | ≤ 100 nM | ≧8.0*
42 | Cc1cc(Cl)ccc1OC(C1CCCC1)C1CCNC1 (stereo not drawn) [Example 18-7, 3-[(4-Chloro-2-methylphenoxy)cyclopentylmethyl]pyrrolidine] | ≤ 10 nM | ≤ 100 nM | 
